# Reference: ChEMBL document CHEMBL1201862, “PubChem BioAssay data set” (2004)
# The source made the active and inactive calls.
# Columns and labels:
# Bcl-2-like protein 10 = biological target: T1, Bcl-2-like protein 10 (Homo sapiens, UniProt Q9HD36); experiment: Bcl-B/TR3 peptide binding disruption – biochemical, fluorescence polarization, FITC-TR3 peptide, selectivity assay for Bfl-1 inhibitor project, primary screen (AID 748);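 also: fluorescence polarization from a fluorescein-labelled TR3 peptide binding purified Bcl-B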
# T1 sequence (Q9HD36 whole entry): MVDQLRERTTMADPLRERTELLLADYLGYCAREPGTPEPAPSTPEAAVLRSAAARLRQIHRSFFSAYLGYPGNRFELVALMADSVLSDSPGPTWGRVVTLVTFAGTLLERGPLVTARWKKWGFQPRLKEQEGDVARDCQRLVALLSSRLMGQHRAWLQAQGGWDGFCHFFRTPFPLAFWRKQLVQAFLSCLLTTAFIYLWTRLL
# [1] = biological target: T2, Voltage-gated N-type calcium channel alpha-1B subunit/Amyloid beta A4 precursor protein-binding family A member 1 (Homo sapiens, UniProt Q00975+Q02410); format: protein assay
# [2] = biological target: T2, Voltage-gated N-type calcium channel alpha-1B subunit/Amyloid beta A4 precursor protein-binding family A member 1; format: protein assay; remark: listed apart in the source
# [3] = biological target: Intestinal-type alkaline phosphatase (Mus musculus, UniProt P24822); experiment: PubChem AID 488875; format: functional
# [4] = biological target: T3, Intestinal-type alkaline phosphatase (Homo sapiens, UniProt P09923); experiment: human intestinal alkaline phosphatase activators, dose response, biochemical, luminescence, uHTS hits (AID 463120); format: functional
# [5] = biological target: T3, Intestinal-type alkaline phosphatase; experiment: activation of human intestinal alkaline phosphatase – biochemical, luminescent, uHTS hits, set 2, dose response (AID 488817); format: functional;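 also: potency of activators that raise enzyme activity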
# [6] = biological target: T4, Alkaline phosphatase, tissue-nonspecific isozyme (Homo sapiens, UniProt P05186); experiment: activation of tissue-nonspecific alkaline phosphatase – biochemical, TNAP isozyme, human IAP uHTS hits, selectivity assay for human IAP activator project, dose response (AID 488886); format: functional;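 also: potency of compounds raising TNAP activity as a selectivity check on IAP activators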
# T4 sequence (P05186 whole entry): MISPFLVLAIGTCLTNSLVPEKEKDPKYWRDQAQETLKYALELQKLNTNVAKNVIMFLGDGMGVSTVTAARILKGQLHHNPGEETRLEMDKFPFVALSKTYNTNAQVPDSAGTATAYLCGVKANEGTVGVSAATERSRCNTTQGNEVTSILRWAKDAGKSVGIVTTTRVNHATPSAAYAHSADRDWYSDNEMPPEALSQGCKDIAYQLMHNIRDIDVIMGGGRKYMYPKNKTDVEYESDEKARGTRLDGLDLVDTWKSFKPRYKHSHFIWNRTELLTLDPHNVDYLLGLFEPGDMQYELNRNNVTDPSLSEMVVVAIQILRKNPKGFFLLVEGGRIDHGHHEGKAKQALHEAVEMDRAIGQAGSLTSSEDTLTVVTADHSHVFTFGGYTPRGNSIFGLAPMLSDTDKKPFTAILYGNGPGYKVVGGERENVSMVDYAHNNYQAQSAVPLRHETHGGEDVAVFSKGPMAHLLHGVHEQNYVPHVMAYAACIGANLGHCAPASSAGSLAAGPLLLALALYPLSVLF
# [7] = viability of uninfected HEp-2 cells – cell-based, HTS, cytotoxicity control for RSV inhibitor project, dose response (AID 2410); format: functional; details: human respiratory syncytial virus
# [8] = microbe, parasite or virus in culture; format: functional; details: Mycobacterium tuberculosis
# [9] = THP-1 cell cytotoxicity, dose response, cytotoxicity control for non-replicating M. tuberculosis project (AID 489025); format: functional
# [10] = HepG2 cell cytotoxicity, dose response, cytotoxicity control for non-replicating M. tuberculosis project (AID 489018); format: functional; details: Mycobacterium tuberculosis
# cells = format: functional
# [11] = biological target: DNA dC->dU-editing enzyme APOBEC-3A (Homo sapiens, UniProt P31941); experiment: Dose Response confirmation of small molecule APOBEC3A DNA Deaminase Inhibitors via a fluorescence-based single-stranded DNA deaminase assay. [Related pubchem assays (depositor defined):AID493011, AID493024]; format: functional
# [12] = biological target: DNA dC->dU-editing enzyme APOBEC-3G (Homo sapiens, UniProt Q9HC16); format: functional;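 also: Dose-response counterscreen measuring inhibition of APOBEC3G DNA deaminase activity, run while confirming APOBEC3A inhibitors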
# [13] = biological target: T5, Carboxy-terminal domain RNA polymerase II polypeptide A small phosphatase 1 (Homo sapiens, UniProt Q9GZU7); experiment: CTDSP1 inhibitors, concentration-response, biochemical, absorbance readout, ultra-high-throughput screen actives (AID 540297); format: functional
# T5 sequence (Q9GZU7 whole entry): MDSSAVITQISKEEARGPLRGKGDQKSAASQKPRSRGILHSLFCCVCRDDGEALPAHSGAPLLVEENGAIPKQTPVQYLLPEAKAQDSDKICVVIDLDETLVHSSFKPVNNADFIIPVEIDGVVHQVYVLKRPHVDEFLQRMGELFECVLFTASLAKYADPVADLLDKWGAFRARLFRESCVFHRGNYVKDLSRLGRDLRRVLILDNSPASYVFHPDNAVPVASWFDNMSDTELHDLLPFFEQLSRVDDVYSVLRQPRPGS
# [14] = biological target: T6, RNA-binding protein pos-1 (Caenorhabditis elegans, UniProt G5EF15); experiment: disruptors of C. elegans POS-1 RNA interaction – biochemical, fluorescence polarization, dose response (AID 1964);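 also: purified POS-1 fused to maltose binding protein made in E. coli; potency of compounds blocking POS-1 binding to fluorescent RNA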
# T6 sequence (G5EF15 whole entry): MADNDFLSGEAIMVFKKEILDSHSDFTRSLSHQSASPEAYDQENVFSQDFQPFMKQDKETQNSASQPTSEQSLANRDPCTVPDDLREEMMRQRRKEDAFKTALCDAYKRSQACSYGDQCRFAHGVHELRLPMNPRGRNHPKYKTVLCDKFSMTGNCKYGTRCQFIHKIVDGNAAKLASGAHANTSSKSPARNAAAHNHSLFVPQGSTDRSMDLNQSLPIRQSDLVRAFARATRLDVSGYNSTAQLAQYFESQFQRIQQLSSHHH
# [15] = biological target: T7, Zinc finger protein mex-5 (Caenorhabditis elegans, UniProt Q9XUB2); experiment: potency of MEX-5 RNA-binding blockers – biochemical, C. elegans, fluorescence polarization, dose response (AID 1960)
# T7 sequence (Q9XUB2 whole entry): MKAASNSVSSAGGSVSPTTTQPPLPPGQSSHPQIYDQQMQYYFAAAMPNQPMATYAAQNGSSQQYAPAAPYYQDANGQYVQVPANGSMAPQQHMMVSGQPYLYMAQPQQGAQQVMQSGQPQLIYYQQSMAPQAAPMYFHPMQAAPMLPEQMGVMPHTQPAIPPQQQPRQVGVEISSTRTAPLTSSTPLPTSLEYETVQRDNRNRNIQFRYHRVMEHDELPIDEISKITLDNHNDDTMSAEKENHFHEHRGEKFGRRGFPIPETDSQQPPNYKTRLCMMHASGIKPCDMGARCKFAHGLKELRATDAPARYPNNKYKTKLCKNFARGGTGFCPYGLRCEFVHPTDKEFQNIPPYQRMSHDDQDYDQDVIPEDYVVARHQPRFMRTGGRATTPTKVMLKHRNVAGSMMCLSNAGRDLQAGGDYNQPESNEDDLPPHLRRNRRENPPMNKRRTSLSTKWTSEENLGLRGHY
# [16] = biological target: T8, Lysosomal acid glucosylceramidase (Homo sapiens, UniProt P04062); experiment: Dose response cell-based high throughput screening assay to identify enhancers of beta-glucosidase activity. [Related pubchem assays: 784 ]; format: functional
# T8 sequence (P04062 whole entry): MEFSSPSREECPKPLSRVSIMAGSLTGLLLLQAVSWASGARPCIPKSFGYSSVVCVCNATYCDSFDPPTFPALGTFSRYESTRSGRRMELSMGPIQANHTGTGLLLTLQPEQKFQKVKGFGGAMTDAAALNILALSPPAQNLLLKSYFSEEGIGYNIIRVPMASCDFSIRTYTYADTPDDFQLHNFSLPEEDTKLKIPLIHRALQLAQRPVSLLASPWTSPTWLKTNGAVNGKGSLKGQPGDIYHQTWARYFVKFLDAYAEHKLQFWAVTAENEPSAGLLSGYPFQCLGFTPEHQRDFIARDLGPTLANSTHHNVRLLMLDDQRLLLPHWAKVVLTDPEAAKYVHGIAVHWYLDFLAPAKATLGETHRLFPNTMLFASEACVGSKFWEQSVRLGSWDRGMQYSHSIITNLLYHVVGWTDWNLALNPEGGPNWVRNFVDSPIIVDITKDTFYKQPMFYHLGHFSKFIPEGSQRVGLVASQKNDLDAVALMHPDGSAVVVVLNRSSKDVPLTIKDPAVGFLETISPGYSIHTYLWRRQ
# [17] = biological target: T9, Rac GTPase-activating protein 1 (Homo sapiens, UniProt Q9H0H5); experiment: blockers of MgcRacGAP-driven Rac1 GTP hydrolysis – biochemical, ADP Hunter fluorescence, primary and confirmatory, confirmation (AID 624330); format: functional
# T9 sequence (Q9H0H5 whole entry): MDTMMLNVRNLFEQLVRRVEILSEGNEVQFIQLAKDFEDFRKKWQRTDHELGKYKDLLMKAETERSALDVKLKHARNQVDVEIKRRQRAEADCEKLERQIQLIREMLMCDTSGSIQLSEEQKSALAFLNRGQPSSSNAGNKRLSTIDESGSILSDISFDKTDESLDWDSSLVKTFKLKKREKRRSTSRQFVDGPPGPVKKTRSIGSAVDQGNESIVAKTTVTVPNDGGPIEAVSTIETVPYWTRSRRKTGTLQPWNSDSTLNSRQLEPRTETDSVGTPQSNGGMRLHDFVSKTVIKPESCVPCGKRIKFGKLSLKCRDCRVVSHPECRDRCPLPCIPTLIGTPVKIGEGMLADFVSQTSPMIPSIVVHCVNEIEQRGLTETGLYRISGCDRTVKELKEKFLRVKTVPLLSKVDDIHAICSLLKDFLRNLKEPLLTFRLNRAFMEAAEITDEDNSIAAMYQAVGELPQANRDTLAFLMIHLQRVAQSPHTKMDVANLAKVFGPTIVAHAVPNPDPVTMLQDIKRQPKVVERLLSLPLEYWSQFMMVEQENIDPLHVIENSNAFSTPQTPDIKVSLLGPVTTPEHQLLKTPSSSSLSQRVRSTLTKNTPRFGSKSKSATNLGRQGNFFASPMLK
# Cytochrome P450 3A4 = Cytochrome P450 3A4 (Homo sapiens, UniProt P08684); details: Potency;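 also: confirmatory qHTS run detecting inhibitors and substrates of CYP3A4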
# Coagulation factor XII = biological target: T10, Coagulation factor XII (Homo sapiens, UniProt P00748); format: functional;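 also: activated factor XIIa alpha cleaving a fluorogenic AMC peptide substrate; inhibitor potency from loss of enzyme activity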
# T10 sequence (P00748 whole entry): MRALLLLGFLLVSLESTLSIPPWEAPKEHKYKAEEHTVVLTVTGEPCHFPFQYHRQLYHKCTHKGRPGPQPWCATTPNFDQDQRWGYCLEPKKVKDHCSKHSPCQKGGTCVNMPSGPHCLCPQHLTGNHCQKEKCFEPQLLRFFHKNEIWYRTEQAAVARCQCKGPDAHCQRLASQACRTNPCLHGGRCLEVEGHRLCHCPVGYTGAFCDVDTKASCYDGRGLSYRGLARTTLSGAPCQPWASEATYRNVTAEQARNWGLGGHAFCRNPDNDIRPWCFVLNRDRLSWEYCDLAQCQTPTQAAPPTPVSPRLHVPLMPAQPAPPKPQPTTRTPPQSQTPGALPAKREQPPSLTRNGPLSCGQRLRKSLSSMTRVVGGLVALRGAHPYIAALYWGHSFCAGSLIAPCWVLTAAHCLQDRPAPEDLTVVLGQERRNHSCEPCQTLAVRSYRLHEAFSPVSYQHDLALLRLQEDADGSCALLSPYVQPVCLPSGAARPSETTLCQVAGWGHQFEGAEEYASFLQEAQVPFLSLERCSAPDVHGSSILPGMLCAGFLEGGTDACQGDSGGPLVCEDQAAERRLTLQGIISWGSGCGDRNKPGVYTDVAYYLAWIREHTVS
# Cytochrome P450 3A4, sequence (P08684 whole entry): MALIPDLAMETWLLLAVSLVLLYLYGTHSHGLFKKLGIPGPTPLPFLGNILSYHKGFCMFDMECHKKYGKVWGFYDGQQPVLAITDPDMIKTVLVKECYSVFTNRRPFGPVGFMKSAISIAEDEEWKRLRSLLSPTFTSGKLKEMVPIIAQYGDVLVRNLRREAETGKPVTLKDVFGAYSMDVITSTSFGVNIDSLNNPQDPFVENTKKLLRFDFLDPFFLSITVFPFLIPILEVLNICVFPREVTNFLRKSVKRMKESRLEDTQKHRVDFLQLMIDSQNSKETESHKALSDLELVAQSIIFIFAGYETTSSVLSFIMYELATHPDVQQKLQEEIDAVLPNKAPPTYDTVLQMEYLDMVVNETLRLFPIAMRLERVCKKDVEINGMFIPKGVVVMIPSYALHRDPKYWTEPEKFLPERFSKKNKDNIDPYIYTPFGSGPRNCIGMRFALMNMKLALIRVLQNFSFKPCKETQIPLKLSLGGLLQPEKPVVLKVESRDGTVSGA
# DNA dC->dU-editing enzyme APOBEC-3A, sequence (P31941 whole entry): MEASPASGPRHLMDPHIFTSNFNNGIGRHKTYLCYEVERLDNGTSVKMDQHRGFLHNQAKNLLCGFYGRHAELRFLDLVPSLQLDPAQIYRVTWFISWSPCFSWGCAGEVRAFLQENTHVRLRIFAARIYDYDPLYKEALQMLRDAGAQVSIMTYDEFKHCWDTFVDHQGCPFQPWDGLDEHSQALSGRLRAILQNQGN
# DNA dC->dU-editing enzyme APOBEC-3G, sequence (Q9HC16 whole entry, the tested form may be a part): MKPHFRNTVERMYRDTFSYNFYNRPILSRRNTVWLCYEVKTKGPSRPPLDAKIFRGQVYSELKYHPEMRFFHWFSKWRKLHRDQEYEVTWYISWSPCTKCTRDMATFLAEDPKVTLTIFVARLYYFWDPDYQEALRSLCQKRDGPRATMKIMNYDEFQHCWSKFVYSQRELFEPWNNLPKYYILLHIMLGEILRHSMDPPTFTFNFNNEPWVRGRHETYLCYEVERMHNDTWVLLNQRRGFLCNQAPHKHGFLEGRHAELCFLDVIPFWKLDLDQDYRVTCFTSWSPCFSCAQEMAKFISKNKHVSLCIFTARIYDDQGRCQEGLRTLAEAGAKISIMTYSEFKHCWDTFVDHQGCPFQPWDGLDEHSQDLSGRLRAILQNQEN
# T3 sequence (P09923 whole entry): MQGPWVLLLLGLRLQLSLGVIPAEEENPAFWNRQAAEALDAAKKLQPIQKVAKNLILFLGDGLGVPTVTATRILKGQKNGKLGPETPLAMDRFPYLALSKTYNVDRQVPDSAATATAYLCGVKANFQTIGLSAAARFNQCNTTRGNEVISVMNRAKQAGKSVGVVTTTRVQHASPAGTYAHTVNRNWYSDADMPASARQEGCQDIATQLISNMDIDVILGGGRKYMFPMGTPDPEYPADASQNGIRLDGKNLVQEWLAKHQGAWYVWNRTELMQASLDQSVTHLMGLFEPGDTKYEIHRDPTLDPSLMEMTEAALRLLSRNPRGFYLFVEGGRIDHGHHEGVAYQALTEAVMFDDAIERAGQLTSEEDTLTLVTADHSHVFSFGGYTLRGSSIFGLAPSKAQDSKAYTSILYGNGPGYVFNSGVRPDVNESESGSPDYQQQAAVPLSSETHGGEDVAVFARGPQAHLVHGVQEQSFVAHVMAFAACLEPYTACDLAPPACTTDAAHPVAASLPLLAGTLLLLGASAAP
# T2 sequence (Q00975 whole entry): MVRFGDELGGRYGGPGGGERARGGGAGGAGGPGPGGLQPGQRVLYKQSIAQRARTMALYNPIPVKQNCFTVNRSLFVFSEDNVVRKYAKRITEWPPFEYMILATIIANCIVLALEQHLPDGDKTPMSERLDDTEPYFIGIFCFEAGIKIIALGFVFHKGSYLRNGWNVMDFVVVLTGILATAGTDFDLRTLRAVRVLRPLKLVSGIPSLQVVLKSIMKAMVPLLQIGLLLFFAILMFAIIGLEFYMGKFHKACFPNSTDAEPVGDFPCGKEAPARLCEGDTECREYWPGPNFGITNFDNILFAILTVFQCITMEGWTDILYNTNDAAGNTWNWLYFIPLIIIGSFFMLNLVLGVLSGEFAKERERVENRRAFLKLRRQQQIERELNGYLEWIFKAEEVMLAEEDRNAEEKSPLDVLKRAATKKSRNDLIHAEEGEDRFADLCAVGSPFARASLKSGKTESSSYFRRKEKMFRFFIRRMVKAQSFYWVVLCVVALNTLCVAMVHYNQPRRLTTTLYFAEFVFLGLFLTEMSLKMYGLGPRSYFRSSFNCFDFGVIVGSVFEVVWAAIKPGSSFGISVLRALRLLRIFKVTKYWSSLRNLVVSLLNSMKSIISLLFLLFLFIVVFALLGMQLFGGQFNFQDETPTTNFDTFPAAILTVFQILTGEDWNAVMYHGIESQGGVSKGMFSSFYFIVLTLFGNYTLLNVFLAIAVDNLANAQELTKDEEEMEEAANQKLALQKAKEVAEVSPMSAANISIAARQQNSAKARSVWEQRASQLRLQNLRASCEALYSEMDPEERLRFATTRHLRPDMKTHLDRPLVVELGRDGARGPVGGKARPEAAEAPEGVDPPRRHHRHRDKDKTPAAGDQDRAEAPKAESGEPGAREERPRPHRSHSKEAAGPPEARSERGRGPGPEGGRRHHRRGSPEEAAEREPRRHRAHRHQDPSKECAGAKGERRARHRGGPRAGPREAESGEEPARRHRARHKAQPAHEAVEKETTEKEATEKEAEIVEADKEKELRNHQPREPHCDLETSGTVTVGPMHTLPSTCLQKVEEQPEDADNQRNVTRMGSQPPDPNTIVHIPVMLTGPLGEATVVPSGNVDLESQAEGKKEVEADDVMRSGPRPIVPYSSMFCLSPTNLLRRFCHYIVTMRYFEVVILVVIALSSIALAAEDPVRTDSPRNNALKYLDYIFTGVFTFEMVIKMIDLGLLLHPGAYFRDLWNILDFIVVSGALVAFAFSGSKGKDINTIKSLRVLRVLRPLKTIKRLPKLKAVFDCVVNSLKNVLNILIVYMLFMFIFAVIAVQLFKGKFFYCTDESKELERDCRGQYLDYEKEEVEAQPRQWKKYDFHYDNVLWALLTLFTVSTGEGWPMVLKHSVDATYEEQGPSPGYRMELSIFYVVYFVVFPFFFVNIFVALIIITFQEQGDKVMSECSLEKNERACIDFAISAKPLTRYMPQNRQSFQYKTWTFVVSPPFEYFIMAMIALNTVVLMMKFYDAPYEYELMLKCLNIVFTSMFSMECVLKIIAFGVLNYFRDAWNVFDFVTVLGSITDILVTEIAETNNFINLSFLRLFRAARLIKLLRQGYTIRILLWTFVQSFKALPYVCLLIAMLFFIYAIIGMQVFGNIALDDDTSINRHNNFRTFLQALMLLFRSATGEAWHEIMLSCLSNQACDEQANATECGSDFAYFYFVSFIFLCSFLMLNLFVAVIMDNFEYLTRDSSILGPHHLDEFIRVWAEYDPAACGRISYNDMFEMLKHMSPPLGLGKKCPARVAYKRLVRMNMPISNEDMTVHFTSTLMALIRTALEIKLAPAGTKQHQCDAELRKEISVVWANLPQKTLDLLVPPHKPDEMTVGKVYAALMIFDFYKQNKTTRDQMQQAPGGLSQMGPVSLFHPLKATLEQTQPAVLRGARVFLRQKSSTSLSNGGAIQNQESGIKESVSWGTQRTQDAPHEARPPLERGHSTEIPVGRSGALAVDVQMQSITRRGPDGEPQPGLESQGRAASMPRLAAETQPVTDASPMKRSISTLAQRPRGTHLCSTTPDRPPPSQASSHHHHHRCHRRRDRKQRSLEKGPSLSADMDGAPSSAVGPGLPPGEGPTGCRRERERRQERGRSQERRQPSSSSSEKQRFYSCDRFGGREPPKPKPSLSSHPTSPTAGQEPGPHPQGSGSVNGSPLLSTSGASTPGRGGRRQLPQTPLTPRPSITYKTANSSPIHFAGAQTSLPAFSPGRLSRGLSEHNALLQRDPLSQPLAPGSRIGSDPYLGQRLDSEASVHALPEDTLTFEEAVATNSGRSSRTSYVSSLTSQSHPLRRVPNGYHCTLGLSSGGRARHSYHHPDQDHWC
# T2 sequence (Q02410 whole entry): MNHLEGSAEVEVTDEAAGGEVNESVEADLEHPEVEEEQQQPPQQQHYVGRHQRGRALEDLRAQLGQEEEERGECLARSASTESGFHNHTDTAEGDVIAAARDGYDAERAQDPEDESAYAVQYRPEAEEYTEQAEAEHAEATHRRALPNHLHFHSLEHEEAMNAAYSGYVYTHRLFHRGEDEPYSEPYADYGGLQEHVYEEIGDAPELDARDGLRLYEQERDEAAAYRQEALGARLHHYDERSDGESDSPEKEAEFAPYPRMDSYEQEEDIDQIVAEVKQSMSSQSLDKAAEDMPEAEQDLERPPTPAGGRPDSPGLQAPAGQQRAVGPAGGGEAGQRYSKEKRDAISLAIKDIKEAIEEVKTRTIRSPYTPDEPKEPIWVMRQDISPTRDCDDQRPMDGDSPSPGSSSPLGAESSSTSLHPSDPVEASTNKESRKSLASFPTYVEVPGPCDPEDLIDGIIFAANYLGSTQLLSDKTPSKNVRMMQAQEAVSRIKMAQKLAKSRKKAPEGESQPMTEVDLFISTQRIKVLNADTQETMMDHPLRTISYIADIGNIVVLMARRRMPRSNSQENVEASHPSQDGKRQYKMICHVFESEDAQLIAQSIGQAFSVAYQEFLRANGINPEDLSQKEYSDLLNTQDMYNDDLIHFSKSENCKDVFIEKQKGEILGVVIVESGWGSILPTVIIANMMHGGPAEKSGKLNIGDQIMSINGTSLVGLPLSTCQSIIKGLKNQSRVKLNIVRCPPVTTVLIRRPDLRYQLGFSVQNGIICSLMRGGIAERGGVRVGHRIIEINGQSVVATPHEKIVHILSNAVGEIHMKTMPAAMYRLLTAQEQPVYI
compound,measurement,setting,value
C=CCNS(=O)(=O)c1nc(C)c(Cl)c(C)c1C#N,IC50,Bcl-2-like protein 10,> 100 µM (inactive)
N#CCC(=O)N/N=C/c1cn(Cc2ccc(Cl)c(Cl)c2)c2ccccc12,IC50,[1],> 56.8 µM (not active)
same,IC50,[2],> 50 µM (inactive)
COc1ccccc1N(C)S(=O)(=O)c1ccc(Cl)c(C(=O)NNC(=O)c2ccccc2O)c1,EC50,[3],> 100 µM (inactive)
same,EC50,[4],11.5 µM (active)
same,EC50,[5],15.7 µM (active)
same,EC50,[6],26.5 µM (active)
C=CCNCC(=O)N1N=C(c2ccc3ccccc3c2)CC1c1ccc(OC)cc1 (centres undefined),CC50,[7],14.9 µM (active)
same,CC50,[8],25.5 µM (active)
same,CC50,[9],23.5 µM (active)
same,CC50,[10],> 20 µM (active)
same,IC50,cells,18.1 µM (active)
CCOc1ccc(/N=C2/SCCCN2C)cc1,IC50,[11],2.19 µM (active)
same,IC50,[12],2.35 µM (active)
same,IC50,[13],17 µM (active)
N=c1c(C(=O)NCC2CCCO2)cc2c(=O)n3ccccc3nc2n1Cc1cccnc1 (centres undefined),EC50,[14],17.1 µM (active)
same,IC50,Bcl-2-like protein 10,> 25 µM (inactive)
same,EC50,[15],12.2 µM (active)
CCOc1ccccc1-n1c(SCC(N)=O)nnc1-c1ccc(O)cc1,EC50,[16],> 50 µM (not active)
Oc1cccc(Nc2ccccc2)c1,IC50,[17],62.6 µM (active)
same,AC50,Cytochrome P450 3A4,15.8 µM (inconclusive)
COC(=O)c1ccccc1NC(=O)c1cc[n+](C)cc1,IC50,[11],3.62 µM (active)
same,IC50,[12],4.04 µM (active)
"O=C(NC1CCCCC1)NC1CCCCC1 [1,3-DICYCLOHEXYLUREA]",AC50,Cytochrome P450 3A4,3.16 µM (inconclusive)
CC1Cc2ccccc2N1S(=O)(=O)c1cccc2nsnc12 (centres undefined),IC50,Coagulation factor XII,> 50 µM (inactive)
CCOC(=O)C[n+]1c(C)n(C)c2cc(Cl)c(Cl)cc21,IC50,[11],2.26 µM (active)
same,IC50,[12],2.2 µM (active)
COc1ccc(S(=O)(=O)N(CC(=O)NCC2CCCO2)c2ccccc2)cc1OC (centres undefined),EC50,[16],> 50 µM (not active)
O=C(N/N=C/c1c(F)cccc1Cl)c1cc(C2CC2)[nH]n1,EC50,[3],> 100 µM (inactive)
same,EC50,[4],21.5 µM (active)
same,EC50,[5],40.6 µM (active)
same,EC50,[6],41.3 µM (active)
Cc1cc(NS(=O)(=O)c2ccc(NC(=O)CCN3C(=O)c4ccccc4C3=O)cc2)no1,EC50,[16],> 50 µM (not active)
"CC1(C)CC2C1CCC1(C)OC2(C)CCC1O (centres undefined) [3,7-EPOXYCARYOPHYLLAN-6-OL]",AC50,Cytochrome P450 3A4,25.1 µM (inconclusive)
